Values quoted from earlier work, collected in patent US12364689B2, “Dosage regimen for the treatment of cancer” (AstraZeneca AB, priority 2020, dated 2025).

How the values were obtained:
[1] = biological target: T1, ERα receptor (Homo sapiens, UniProt P03372); conditions: 500 mg monthly dose; cited from earlier work
T1 sequence (P03372 1-595): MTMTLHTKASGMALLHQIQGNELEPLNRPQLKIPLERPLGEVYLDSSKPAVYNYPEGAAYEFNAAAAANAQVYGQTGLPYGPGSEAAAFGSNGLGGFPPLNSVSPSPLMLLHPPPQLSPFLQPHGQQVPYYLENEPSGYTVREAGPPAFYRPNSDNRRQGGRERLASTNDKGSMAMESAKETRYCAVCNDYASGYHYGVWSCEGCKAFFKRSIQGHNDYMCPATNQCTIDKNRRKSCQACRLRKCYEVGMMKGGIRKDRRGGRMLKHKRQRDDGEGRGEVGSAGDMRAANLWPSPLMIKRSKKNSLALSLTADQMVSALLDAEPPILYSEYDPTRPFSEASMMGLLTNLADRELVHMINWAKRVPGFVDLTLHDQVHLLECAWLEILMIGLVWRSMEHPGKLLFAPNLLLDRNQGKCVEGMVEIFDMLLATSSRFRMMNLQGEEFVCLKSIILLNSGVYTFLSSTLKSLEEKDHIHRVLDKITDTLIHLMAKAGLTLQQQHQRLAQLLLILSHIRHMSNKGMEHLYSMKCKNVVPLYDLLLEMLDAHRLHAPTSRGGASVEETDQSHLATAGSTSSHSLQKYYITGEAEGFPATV

[2] = biological target: T1, ERα receptor; conditions: in vitro breast cell line experiments; cited from earlier work

C[C@]12CC[C@@H]3c4ccc(O)cc4C[C@@H](CCCCCCCCC[S+]([O-])CCCC(F)(F)C(F)(F)F)[C@H]3[C@@H]1CC[C@@H]2O (some centres unmarked) [Fulvestrant, fulvestrant]
turnover of the receptor in patient samples [1]: less than 50% | down-regulation of the receptor [2]: complete down-regulation
